Earlier results in patent US8058304B2, “Merged ion channel modulating compounds and uses thereof” (Cardiome Pharma Corp., priority 2004, dated 2011).

System: patients with left ventricular dysfunction after recent and remote myocardial infarction
Conditions: optically pure d-sotalol; SWORD study, Lancet 1996

Compound: CC(C)NC[C@@H](O)c1ccc(NS(C)(=O)=O)cc1 [d-sotalol]
- increased mortality compared to placebo: 65%
